Results as given in patent US20160220569A1, “CDK4/6 Inhibitor Dosage Formulations For The Protection Of Hematopoietic Stem And Progenitor Cells During Chemotherapy” (G1 Therapeutics, Inc., priority 2015, published 2016).
Where two headings read alike, the source gives them in different places.

Experiment: Compound 1 PK dosed Days 1-5 with topotecan
Type: in vivo, human
Conditions: for AUC(0-inf) / Cmax / half-life / concentration at 24.5 h: human, plasma, intravenous
Procedure: Analysis of plasma concentration versus time data for calculation of standard pharmacokinetic (PK) parameters following intravenous infusion administration was conducted using Phoenix WinNonlin version 6.3 using a nominal infusion duration and scheduled blood sampling times.

[1] = 200 mg/m^2 with Topotecan […]^2 (Cohort 1), Day 1, individual subjects

## CN1CCN(c2ccc(Nc3ncc4cc5n(c4n3)C3(CCCCC3)CNC5=O)nc2)CC1 [Compound 1, 2′-((5-(4-methylpiperazin-1-yl)pyridin-2-yl)amino)-7′,8′-dihydro-6′H-spiro[cyclohexane-1,9′-pyrazino[1′,2′:1,5]pyrrolo[2,3-d]pyrimidin]-6′-one]
200 mg/m^2 with Topotecan […]^2 (Cohort 1), Day 1, Max
  t½: 6.24 h
200 mg/m^2 with Topotecan […]^2 (Cohort 1), Day 1, Min
  t½: 5.60 h
[1]
  AUCinf: 2430 ng·h/mL
  t½: 6.24 h
200 mg/m^2 with Topotecan […]^2 (Cohort 1), Day 4, Max
  t½: 9.15 h
200 mg/m^2 with Topotecan […]^2 (Cohort 1), Day 4, Min
  t½: 6.96 h
200 mg/m^2 with Topotecan […]^2 (Cohort 1), Day 4, individual subjects
  t½: 9.15 h
Cohort 2 (Topotecan 1.25 mg/m^2), Day 4, mean
  pre-dose concentration averaging: 33.3 ng/mL
Cohort 3 (Topotecan 0.75 mg/m^2), Day 4, mean
  pre-dose concentration averaging: 27.1 ng/mL
200 mg/m^2 with Topotecan 0.75 mg/m^2 (Cohort 3), Day 1, Geo. Mean, read-out: AUCinf
  AUC(0-inf): 2170 ng·h/mL
200 mg/m^2 with Topotecan 0.75 mg/m^2 (Cohort 3), Day 1, Geo. Mean, read-out: Cmax
  Cmax: 1060 ng/mL
200 mg/m^2 with Topotecan 0.75 mg/m^2 (Cohort 3), Day 1, Geo. Mean, read-out: t½ (converted)
  half-life: 7.33 h
200 mg/m^2 with Topotecan 0.75 mg/m^2 (Cohort 3), Day 1, Mean, read-out: AUCinf
  AUC(0-inf): 2200 ng·h/mL
200 mg/m^2 with Topotecan 0.75 mg/m^2 (Cohort 3), Day 1, Mean, read-out: Cmax
  Cmax: 1140 ng/mL
200 mg/m^2 with Topotecan 0.75 mg/m^2 (Cohort 3), Day 1, Mean, read-out: t½ (converted)
  half-life: 7.4 h
200 mg/m^2 with Topotecan 0.75 mg/m^2 (Cohort 3), Day 1, Median, read-out: AUCinf
  AUC(0-inf): 2220 ng·h/mL
200 mg/m^2 with Topotecan 0.75 mg/m^2 (Cohort 3), Day 1, Median, read-out: t½ (converted)
  half-life: 6.85 h
200 mg/m^2 with Topotecan 0.75 mg/m^2 (Cohort 3), Day 1, individual subjects, read-out: t½ (converted)
  half-life: 7.01 h
200 mg/m^2 with Topotecan 0.75 mg/m^2 (Cohort 3), Day 4, Geometric Mean, read-out: Cmax
  Cmax: 1200 ng/mL
200 mg/m^2 with Topotecan 0.75 mg/m^2 (Cohort 3), Day 4, Geometric Mean, read-out: t½ (converted)
  half-life: 8.69 h
200 mg/m^2 with Topotecan 0.75 mg/m^2 (Cohort 3), Day 4, Mean, read-out: Cmax
  Cmax: 1330 ng/mL
200 mg/m^2 with Topotecan 0.75 mg/m^2 (Cohort 3), Day 4, Mean, read-out: t½ (converted)
  half-life: 8.81 h
200 mg/m^2 with Topotecan 0.75 mg/m^2 (Cohort 3), Day 4, Median, read-out: Cmax
  Cmax: 1590 ng/mL
200 mg/m^2 with Topotecan 0.75 mg/m^2 (Cohort 3), Day 4, Median, read-out: t½ (converted)
  half-life: 8.82 h
200 mg/m^2 with Topotecan 0.75 mg/m^2 (Cohort 3), Day 4, individual subjects, read-out: t½ (converted)
  half-life: 10.7 h
200 mg/m^2 with Topotecan 1.25 mg/m^2 (Cohort 2), Day 1, Geo. Mean, read-out: AUCinf
  AUC(0-inf): 2490 ng·h/mL
200 mg/m^2 with Topotecan 1.25 mg/m^2 (Cohort 2), Day 1, Geo. Mean, read-out: Cmax
  Cmax: 895 ng/mL
200 mg/m^2 with Topotecan 1.25 mg/m^2 (Cohort 2), Day 1, Geo. Mean, read-out: t½ (converted)
  half-life: 7.77 h
200 mg/m^2 with Topotecan 1.25 mg/m^2 (Cohort 2), Day 1, Mean, read-out: AUCinf
  AUC(0-inf): 2490 ng·h/mL
200 mg/m^2 with Topotecan 1.25 mg/m^2 (Cohort 2), Day 1, Mean, read-out: t½ (converted)
  half-life: 7.87 h
200 mg/m^2 with Topotecan 1.25 mg/m^2 (Cohort 2), Day 1, Median, read-out: AUCinf
  AUC(0-inf): 2430 ng·h/mL
200 mg/m^2 with Topotecan 1.25 mg/m^2 (Cohort 2), Day 1, Median, read-out: t½ (converted)
  half-life: 8.67 h
200 mg/m^2 with Topotecan 1.25 mg/m^2 (Cohort 2), Day 1, individual subjects, read-out: AUCinf
  AUC(0-inf): 2320 ng·h/mL
200 mg/m^2 with Topotecan 1.25 mg/m^2 (Cohort 2), Day 1, individual subjects, read-out: Cmax
  Cmax: 1000 ng/mL
200 mg/m^2 with Topotecan 1.25 mg/m^2 (Cohort 2), Day 1, individual subjects, read-out: t½ (converted)
  half-life: 6.14 h
200 mg/m^2 with Topotecan 1.25 mg/m^2 (Cohort 2), Day 4, Geometric Mean, read-out: Cmax
  Cmax: 739 ng/mL
200 mg/m^2 with Topotecan 1.25 mg/m^2 (Cohort 2), Day 4, Geometric Mean, read-out: t½ (converted)
  half-life: 8.84 h
200 mg/m^2 with Topotecan 1.25 mg/m^2 (Cohort 2), Day 4, Mean, read-out: Cmax
  Cmax: 752 ng/mL
200 mg/m^2 with Topotecan 1.25 mg/m^2 (Cohort 2), Day 4, Mean, read-out: t½ (converted)
  half-life: 8.95 h
200 mg/m^2 with Topotecan 1.25 mg/m^2 (Cohort 2), Day 4, Median, read-out: t½ (converted)
  half-life: 9.1 h
200 mg/m^2 with Topotecan 1.25 mg/m^2 (Cohort 2), Day 4, individual subjects, read-out: Cmax
  Cmax: 904 ng/mL
200 mg/m^2 with Topotecan 1.25 mg/m^2 (Cohort 2), Day 4, individual subjects, read-out: t½ (converted)
  half-life: 7.15 h
200 mg/m^2 with Topotecan […]^2 (Cohort 1), Day 1, Geo. Mean, read-out: AUCinf
  AUC(0-inf): 2120 ng·h/mL
200 mg/m^2 with Topotecan […]^2 (Cohort 1), Day 1, Geo. Mean, read-out: Cmax
  Cmax: 932 ng/mL
200 mg/m^2 with Topotecan […]^2 (Cohort 1), Day 1, Geo. Mean, read-out: t½ (converted)
  half-life: 5.91 h
200 mg/m^2 with Topotecan […]^2 (Cohort 1), Day 1, Mean, read-out: AUCinf
  AUC(0-inf): 2140 ng·h/mL
200 mg/m^2 with Topotecan […]^2 (Cohort 1), Day 1, Mean, read-out: Cmax
  Cmax: 955 ng/mL
200 mg/m^2 with Topotecan […]^2 (Cohort 1), Day 1, Mean, read-out: t½ (converted)
  half-life: 5.92 h
200 mg/m^2 with Topotecan […]^2 (Cohort 1), Day 1, Median, read-out: AUCinf
  AUC(0-inf): 2140 ng·h/mL
200 mg/m^2 with Topotecan […]^2 (Cohort 1), Day 1, Median, read-out: Cmax
  Cmax: 955 ng/mL
200 mg/m^2 with Topotecan […]^2 (Cohort 1), Day 1, Median, read-out: t½ (converted)
  half-life: 5.92 h
200 mg/m^2 with Topotecan […]^2 (Cohort 1), Day 1, individual subjects, read-out: AUCinf
  AUC(0-inf): 1840 ng·h/mL
200 mg/m^2 with Topotecan […]^2 (Cohort 1), Day 1, individual subjects, read-out: t½ (converted)
  half-life: 5.6 h
200 mg/m^2 with Topotecan […]^2 (Cohort 1), Day 4, Geometric Mean, read-out: Cmax
  Cmax: 993 ng/mL
200 mg/m^2 with Topotecan […]^2 (Cohort 1), Day 4, Geometric Mean, read-out: t½ (converted)
  half-life: 7.98 h
200 mg/m^2 with Topotecan […]^2 (Cohort 1), Day 4, Mean, read-out: Cmax
  Cmax: 999 ng/mL
200 mg/m^2 with Topotecan […]^2 (Cohort 1), Day 4, Mean, read-out: t½ (converted)
  half-life: 8.06 h
200 mg/m^2 with Topotecan […]^2 (Cohort 1), Day 4, Median, read-out: Cmax
  Cmax: 999 ng/mL
200 mg/m^2 with Topotecan […]^2 (Cohort 1), Day 4, Median, read-out: t½ (converted)
  half-life: 8.06 h
200 mg/m^2 with Topotecan […]^2 (Cohort 1), Day 4, individual subjects, read-out: t½ (converted)
  half-life: 6.96 h
Cohort 1 (Topotecan […]^2), Compound 1 200 mg/m^2, Day 1, mean, read-out: AUCinf averaged
  AUC(0-inf): 2140 ng·h/mL
Cohort 1 (Topotecan […]^2), Compound 1 200 mg/m^2, Day 1, mean, read-out: Cmax averaged
  Cmax: 955 ng/mL
Cohort 1 (Topotecan […]^2), Compound 1 200 mg/m^2, Day 1, mean, read-out: Half-lives averaged (converted)
  half-life: 5.92 h
Cohort 1 (Topotecan […]^2), Compound 1 200 mg/m^2, Day 4, mean, read-out: Half-lives averaged (converted)
  half-life: 8.06 h
Cohort 1 (Topotecan […]^2), Compound 1 200 mg/m^2, Day 4, mean, read-out: average Cmax
  Cmax: 999 ng/mL
Cohort 2 (Topotecan 1.25 mg/m^2), Compound 1 200 mg/m^2, Day 1, mean, read-out: AUCinf averaged
  AUC(0-inf): 2490 ng·h/mL
Cohort 2 (Topotecan 1.25 mg/m^2), Compound 1 200 mg/m^2, Day 1, mean, read-out: Cmax averaged
  Cmax: 904 ng/mL
Cohort 2 (Topotecan 1.25 mg/m^2), Compound 1 200 mg/m^2, Day 1, mean, read-out: Half-lives averaged (converted)
  half-life: 7.87 h
Cohort 2 (Topotecan 1.25 mg/m^2), Compound 1 200 mg/m^2, Day 4, mean, read-out: Half-lives averaged (converted)
  half-life: 8.95 h
Cohort 2 (Topotecan 1.25 mg/m^2), Compound 1 200 mg/m^2, Day 4, mean, read-out: average Cmax
  Cmax: 752 ng/mL
Cohort 2 (Topotecan 1.25 mg/m^2), Day 1, mean, read-out: concentration at 24.5 hours after the start of infusion, averaging
  concentration at 24.5 h: 19.5 ng/mL
Cohort 2 (Topotecan 1.25 mg/m^2), Day 4, mean, read-out: concentration at 24.5 hours after dosing, averaged
  concentration at 24.5 h: 22.7 ng/mL
Cohort 3 (Topotecan 0.75 mg/m^2), Compound 1 200 mg/m^2, Day 1, mean, read-out: AUCinf averaged
  AUC(0-inf): 2200 ng·h/mL
Cohort 3 (Topotecan 0.75 mg/m^2), Compound 1 200 mg/m^2, Day 1, mean, read-out: Cmax averaged
  Cmax: 1140 ng/mL
Cohort 3 (Topotecan 0.75 mg/m^2), Compound 1 200 mg/m^2, Day 1, mean, read-out: Half-lives averaged (converted)
  half-life: 7.4 h
Cohort 3 (Topotecan 0.75 mg/m^2), Compound 1 200 mg/m^2, Day 4, mean, read-out: Half-lives averaged (converted)
  half-life: 8.81 h
Cohort 3 (Topotecan 0.75 mg/m^2), Compound 1 200 mg/m^2, Day 4, mean, read-out: average Cmax
  Cmax: 1330 ng/mL
Cohort 3 (Topotecan 0.75 mg/m^2), Day 1, mean, read-out: concentration at 24.5 hours after the start of infusion, averaging
  concentration at 24.5 h: 13.3 ng/mL
Cohort 3 (Topotecan 0.75 mg/m^2), Day 4, mean, read-out: concentration at 24.5 hours after dosing, averaged
  concentration at 24.5 h: 18.2 ng/mL
